Test results: PubChem BioAssay (NCI)
Several values for one entry are separate records, joined by “and”; a condition that tells them apart may be missing. Equal values may be shown once.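 Tested at 5 concentrations; 48 h exposure; 96-well plates; endpoints linearly interpolated, else capped at highest concentration. At the GI50, growth is halved. TGI: total growth inhibition.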

How the values were obtained:
Assay in all cases: inhibition of tumour cell growth, NCI panel, 48 h
[1] = system: SW-620 colon
[2] = system: ACHN renal
[3] = system: UACC-62 melanoma
[4] = system: SK-MEL-5 melanoma
[5] = system: NCI-H460 lung
[6] = system: 786-0 renal
[7] = system: MDA-MB-231 breast
[8] = system: NCI/ADR-RES ovarian
[9] = system: HS 578T breast
[10] = system: PC-3 prostate

Cc1cc(N(CCC#N)CCC#N)ccc1/C=C(\NC(=O)/C=C/c1ccccc1)C(=O)Nc1ccccc1Cl
TGI [1]: > 100 µM
TGI [2]: > 100 µM
TGI [3]: > 100 µM
TGI [4]: > 100 µM
TGI [5]: > 100 µM
TGI [6]: > 100 µM

CC(C)=C[C@@H]1C[C@H](C)[C@H]2CC[C@H](C)c3c(O)c(OC4OC(C)C(O)C(O)C4O)c(C)c1c32 (stereo partly drawn)
GI50 [1]: 4.66 µM
TGI [1]: 16.3 µM
GI50 [2]: 14.1 µM
TGI [2]: 27.1 µM
GI50 [7]: 13.2 µM
TGI [7]: 26.6 µM
GI50 [4]: 12 µM
TGI [4]: 24.7 µM
GI50 [8]: 0.648 µM
TGI [8]: 16.8 µM
GI50 [5]: 7.83 µM
TGI [5]: 21.2 µM
GI50 [6]: 17.8 µM
TGI [6]: 33 µM
GI50 [9]: 11.6 µM
TGI [9]: 27.5 µM

O=C(/C=C/c1ccccc1)c1ccc(Cl)cc1Cl
TGI [1]: 17.9 µM
TGI [2]: 34.1 µM
TGI [3]: 30 µM
TGI [4]: 31.4 µM
TGI [5]: 33.4 µM
TGI [6]: 33.2 µM

CCCC1C[C@H]2CCCCN2[C@H]2CCCN12 (stereo partly drawn)
TGI [1]: > 58.4 µM
TGI [2]: > 100 µM
TGI [3]: > 100 µM
TGI [4]: > 100 µM
TGI [5]: > 100 µM
TGI [6]: > 100 µM

O=C(N/C(=C\c1ccc([N+](=O)[O-])cc1)c1nc2ccccc2s1)c1ccccc1
TGI [1]: 69 µM
TGI [2]: 92.1 µM
TGI [3]: 48.3 µM
TGI [4]: 63.5 µM
TGI [6]: 34.1 µM

COc1ccc(/C=C/C(=N\NC(=O)c2ccccc2)c2sc(Nc3ccc([N+](=O)[O-])cc3)nc2C)cc1OC
TGI [1]: > 100 µM
TGI [2]: 41.8 µM
TGI [3]: 6.78 µM
TGI [5]: 41.2 µM
TGI [6]: 26.5 µM

COC(=O)CC1(O)C(=O)OCc2c1cc1n(c2=O)Cc2c-1nc1ccccc1c2OC (stereo not drawn)
TGI [1]: > 100 µM
TGI [2]: 1.02 µM
TGI [3]: 2.29 µM
TGI [4]: 2.74 µM
TGI [6]: 0.813 µM

C/C=C/C=C/c1cc2cc3c(c(O)c2c(=O)[nH]1)C1(CC3)C(O)=c2c(=O)c3c(=O)cc(OC)c(=O)c=3c(=O)c2=C1O (stereo not drawn)
TGI [1]: 1.47 µM and 13 µM
TGI [2]: 1.7 µM and 16.5 µM
TGI [3]: 4.34 µM and 14.7 µM
TGI [7]: 4.15 µM
TGI [10]: 0.654 µM
TGI [8]: 37.9 µM
GI50 [5]: 0.192 µM and 0.985 µM
TGI [5]: 15.6 µM and 12 µM
GI50 [6]: 0.41 µM and 1.91 µM
TGI [6]: 4.37 µM and 8.39 µM
TGI [9]: 26.7 µM

CCN(CC)CCOC(COc1cc(C)cc(C)c1)COc1cc(C)cc(C)c1
GI50 [1]: 1.59 µM
TGI [1]: 4.63 µM
GI50 [2]: 3.6 µM
TGI [2]: 13.8 µM
GI50 [3]: 1.74 µM
TGI [3]: 4.61 µM
GI50 [4]: 1.75 µM
TGI [4]: 3.19 µM
GI50 [10]: 2.6 µM
TGI [10]: 10.1 µM
GI50 [8]: 3.34 µM
TGI [8]: 14.6 µM
GI50 [6]: 3.2 µM
TGI [6]: 14.5 µM
GI50 [9]: 4.22 µM
TGI [9]: 16.7 µM

Cc1cc(Cl)ccc1N=C1NC(=O)C(CC(=O)Nc2cccc(Cl)c2)S1 (stereo not drawn)
TGI [1]: > 100 µM
TGI [2]: > 100 µM
TGI [3]: > 100 µM
TGI [4]: > 100 µM
TGI [5]: > 100 µM
TGI [6]: > 100 µM

Cc1nc2c(C)ccc([N+](=O)[O-])c2c(NCCCN(C)C)c1C
TGI [1]: > 53 µM
TGI [2]: > 100 µM
TGI [3]: > 100 µM
TGI [4]: 27.2 µM
TGI [10]: > 47.9 µM
TGI [8]: > 100 µM
TGI [5]: > 100 µM
TGI [6]: > 100 µM
TGI [9]: > 100 µM

N=C(N)c1ccc2oc3ccc(C(=N)N)cc3c(=O)c2c1
TGI [1]: > 100 µM
TGI [2]: > 100 µM
TGI [3]: > 100 µM
TGI [7]: > 100 µM
TGI [4]: > 100 µM
TGI [10]: > 100 µM
TGI [8]: > 100 µM
TGI [5]: > 100 µM
TGI [6]: > 100 µM

CC1[C@@]2(CCC(C)(C)O2)O[C@@H]2C=C3C4CCC5Cc6nc7c(nc6C[C@@]5(C)C4C[C@H](O)[C@@]3(C)[C@]12O)CC1CCC2C3=C[C@H]4O[C@@]5(O[C@@](C)(CO)C[C@@H]5O)C(C)[C@@]4(O)[C@]3(C)[C@@H](O)CC2[C@]1(C)C7 (stereo partly drawn)
GI50 [1]: 0.00938 µM
TGI [1]: 0.499 µM and 0.0508 µM
GI50 [3]: 0.00387 µM
GI50 [4]: 0.0165 µM
TGI [4]: 0.37 µM and 0.0841 µM
TGI [8]: 2.05 µM
GI50 [5]: 0.00135 µM
TGI [5]: 0.365 µM and 0.0392 µM
TGI [6]: 0.6 µM

COc1cc(C2CC(c3ccccc3)=NN2C=O)ccc1Oc1ccnc2cc(Cl)ccc12 (stereo not drawn)
GI50 [1]: > 100 µM
TGI [1]: > 100 µM
GI50 [2]: 17.4 µM
TGI [2]: > 100 µM
GI50 [3]: 6.76 µM
TGI [3]: > 100 µM
GI50 [7]: 28.5 µM
TGI [7]: > 100 µM
GI50 [10]: 2.8 µM
TGI [10]: > 100 µM
GI50 [8]: 3.23 µM
TGI [8]: > 100 µM
GI50 [5]: 18.5 µM
TGI [5]: > 100 µM
GI50 [6]: 11.5 µM
TGI [6]: 73.7 µM
GI50 [9]: 5.6 µM
TGI [9]: > 100 µM

CC(=O)CCC1(c2ccccc2)OC(=O)C(C#N)=C1c1ccccc1 (stereo not drawn)
TGI [1]: > 100 µM
TGI [2]: > 100 µM
TGI [3]: > 100 µM
TGI [4]: > 100 µM
TGI [5]: > 100 µM
TGI [6]: > 100 µM

CC(C)c1ccc(O)c(Cc2cc(C(C)C)cc(Cc3cc(C(C)C)ccc3O)c2O)c1
TGI [1]: 3.09 µM
TGI [2]: 10.8 µM
TGI [3]: 8.48 µM
TGI [4]: 3.15 µM
TGI [5]: 3.45 µM
TGI [6]: 3.08 µM

[Br][Pb]([c]1ccccc1)([c]1ccccc1)[c]1ccccc1
GI50 [1]: 0.163 µM
TGI [1]: 0.3 µM
GI50 [2]: 0.175 µM
TGI [2]: 0.328 µM
GI50 [3]: 0.186 µM
TGI [3]: 0.428 µM
GI50 [7]: 0.208 µM
TGI [7]: 0.514 µM
GI50 [4]: 0.164 µM
TGI [4]: 0.312 µM
GI50 [10]: 0.225 µM
TGI [10]: 0.515 µM
GI50 [8]: 0.229 µM
TGI [8]: 0.561 µM
GI50 [5]: 0.292 µM
TGI [5]: 0.895 µM
GI50 [6]: 0.153 µM
TGI [6]: 0.309 µM

COC(=O)[C@@]12OC[C@]34[C@H]([C@@H](O)[C@@H]1O)[C@@]1(C)CC(=O)C(O)=C(C)[C@@H]1C[C@H]3OC(=O)[C@H](OC(=O)/C=C(\C)C(C)C)[C@@H]24
GI50 [2]: 0.02 µM
TGI [2]: 0.026 µM and 0.0124 µM and 0.0245 µM
TGI [3]: 0.0131 µM and 0.023 µM
GI50 [7]: 0.0228 µM
TGI [7]: 0.0822 µM and 0.0757 µM
TGI [4]: 0.00333 µM and 0.0278 µM
GI50 [10]: 0.02 µM
TGI [10]: 0.0512 µM and 0.0128 µM and 0.028 µM
TGI [5]: 0.00567 µM and 0.0435 µM
GI50 [6]: 0.0217 µM
TGI [6]: 0.072 µM and < 0.012 µM and 0.0429 µM
GI50 [9]: 0.02 µM
TGI [9]: 0.0209 µM and 0.0273 µM

O=C1C(Cl)=C(Nc2ccc(S(=O)(=O)c3ccc(NC4=C(Cl)C(=O)c5ccccc5C4=O)cc3)cc2)C(=O)c2ccccc21
GI50 [2]: 1.31 µM
TGI [2]: 2.69 µM
GI50 [3]: 1.66 µM
TGI [3]: 3.18 µM
GI50 [7]: 1.61 µM
TGI [7]: 3.51 µM
GI50 [4]: 1.71 µM
TGI [4]: 3.49 µM
GI50 [8]: 3.68 µM
TGI [8]: 35.2 µM
GI50 [5]: 2.36 µM
TGI [5]: 6.53 µM
GI50 [6]: 1.86 µM
TGI [6]: 3.29 µM
GI50 [9]: 1.82 µM
TGI [9]: 5.85 µM

COC(=O)C(=O)C(C(=O)C(=O)Nc1ccc([N+](=O)[O-])cc1)c1nc2ccccc2[nH]c1=O (stereo not drawn)
TGI [1]: > 100 µM
TGI [2]: > 100 µM
TGI [3]: > 100 µM
TGI [4]: > 100 µM
TGI [5]: > 100 µM
TGI [6]: > 100 µM

COc1cc2c(oc(=O)c3c4occc4cc(OC)c23)c2cccc(O)c12
TGI [1]: > 100 µM
TGI [2]: > 100 µM
TGI [3]: > 100 µM
TGI [4]: > 100 µM
TGI [5]: > 100 µM
TGI [6]: > 100 µM
